Consider 26 compounds from PMC3963471 (Bioorganic & medicinal chemistry letters, 2013).

Test [1] concerns the target S1P1-R (Homo sapiens, UniProt P21453). The test is described as follows: S1P1-R agonist assay. The test is classed as cell-based.
The target in test [2] is T1, S1P3-R (Homo sapiens, UniProt Q99500). The test is described as follows: S1P3-R agonist assay, CHO NFAT-BLA reporter. The test is classed as cell-based. Particulars: for loss in potency for the S1P3-R relative to hit 1a: less potent than 1a; for loss of potency at S1P3-R relative to 5f: less potent than 5f; for selectivity against S1P1,2,4,5-R subtypes (in words): S1P3-R agonist versus remaining subtypes.

Test [3] addresses T1, S1P3-R. The test is described as follows: [33P]S1P competitive binding experiment in S1P3 jump-in CHO cells. Particulars: 0.1 nM [33P]S1P; competitor 0.001 nM to 10 µM; 4 °C, 30 min.
In test [4] the test system is sodium channel site two. As to the kind of experiment: Ricerca panel: sodium channel site two. Particulars: 30 µM; borderline inhibition. The test is classed as binding.
The test system of test [5] is Ricerca panel of off target proteins including GPCRs, enzymes and ion channels. As to the kind of experiment: Ricerca panel of off target proteins. Particulars: at 30 µM; targets other than those singled out.
Test [6] concerns the target S1P2-R (Homo sapiens, UniProt O95136). The test is described as follows: S1P2-R selectivity counter screen. The test is classed as cell-based. Particulars: at concentrations up to 50 µM. A general note: The purpose of a counterscreen is to sort out artefacts and off-target activity.
Test [7] has as its target T2, S1P4-R (Homo sapiens, UniProt O95977).
T2 sequence (O95977 1-384): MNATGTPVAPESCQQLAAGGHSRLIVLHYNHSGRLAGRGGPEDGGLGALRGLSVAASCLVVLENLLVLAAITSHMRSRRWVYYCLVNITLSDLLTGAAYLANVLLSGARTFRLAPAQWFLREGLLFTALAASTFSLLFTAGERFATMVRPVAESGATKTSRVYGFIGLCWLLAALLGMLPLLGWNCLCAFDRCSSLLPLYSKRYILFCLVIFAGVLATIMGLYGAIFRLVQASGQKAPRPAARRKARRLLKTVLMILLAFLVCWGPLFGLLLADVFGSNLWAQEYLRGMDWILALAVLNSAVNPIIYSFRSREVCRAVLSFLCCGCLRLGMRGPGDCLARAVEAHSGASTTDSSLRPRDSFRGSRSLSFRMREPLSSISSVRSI
The test is described as follows: S1P4-R selectivity counter screen. The test is classed as cell-based. Particulars: at concentrations up to 50 µM.

T1 sequence (Q99500 whole entry): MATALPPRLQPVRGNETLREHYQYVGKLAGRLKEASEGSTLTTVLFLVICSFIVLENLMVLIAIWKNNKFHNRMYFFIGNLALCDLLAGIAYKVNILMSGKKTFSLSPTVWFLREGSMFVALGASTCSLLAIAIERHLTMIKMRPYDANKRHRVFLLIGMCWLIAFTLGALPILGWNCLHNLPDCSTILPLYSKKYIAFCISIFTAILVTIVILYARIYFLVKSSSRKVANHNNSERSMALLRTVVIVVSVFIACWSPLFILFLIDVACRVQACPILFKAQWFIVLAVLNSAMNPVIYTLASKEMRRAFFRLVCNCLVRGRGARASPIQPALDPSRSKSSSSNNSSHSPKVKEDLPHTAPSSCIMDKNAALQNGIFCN
S1P1-R, sequence (P21453 whole entry): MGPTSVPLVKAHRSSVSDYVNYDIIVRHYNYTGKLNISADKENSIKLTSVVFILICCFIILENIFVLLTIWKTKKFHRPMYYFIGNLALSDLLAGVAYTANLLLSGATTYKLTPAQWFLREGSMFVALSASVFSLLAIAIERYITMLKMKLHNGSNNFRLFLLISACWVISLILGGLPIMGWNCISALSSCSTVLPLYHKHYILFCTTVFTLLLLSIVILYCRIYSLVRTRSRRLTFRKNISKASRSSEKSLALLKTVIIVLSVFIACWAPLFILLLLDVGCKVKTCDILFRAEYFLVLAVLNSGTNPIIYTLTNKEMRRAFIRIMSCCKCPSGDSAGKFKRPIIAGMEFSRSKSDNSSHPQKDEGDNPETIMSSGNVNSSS
S1P2-R, sequence (O95136 whole entry): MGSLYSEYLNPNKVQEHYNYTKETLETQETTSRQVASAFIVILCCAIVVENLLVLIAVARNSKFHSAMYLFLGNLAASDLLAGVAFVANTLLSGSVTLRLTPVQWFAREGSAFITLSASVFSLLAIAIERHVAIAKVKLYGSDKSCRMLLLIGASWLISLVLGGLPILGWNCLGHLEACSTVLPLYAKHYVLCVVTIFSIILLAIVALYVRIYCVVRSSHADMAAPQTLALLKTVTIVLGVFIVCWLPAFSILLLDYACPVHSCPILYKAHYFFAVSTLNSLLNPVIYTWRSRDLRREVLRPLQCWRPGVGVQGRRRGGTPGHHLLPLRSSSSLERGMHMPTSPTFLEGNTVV

For the compound `O=C(c1ccc(C2CC2)o1)N(C1CCCCC1)C1CCCCC1` [Compd 9b], the “activity at S1P1-R (in words)” value in test [1] was “micromolar activity”. For the same compound, the “activity at S1P3-R (in words)” value in test [2] is “inactive”.
As to `O=C(c1noc2ccccc12)N(C1CCCCC1)C1CCCCC1` [Compd 9c], the “activity at S1P3-R (in words)” value in test [2] was “inactive”.
On to `Cc1cc(C(=O)N(C2CCCCC2)C2CCCCC2)no1` [Compd 5c], for which, in test [2], the “loss in potency for the S1P3-R relative to hit 1a” value turned out to be 15 fold.
Consider `COc1ccc(-c2cc(C(=O)N(C3CCCCC3)C3CCCCC3)no2)cc1` [Compd 5h], for which the “selectivity against the S1P1-R” value in test [1] (S1P3-R over S1P1-R) is recorded as “less than three-fold”.
Consider `O=C(c1cc(C2CC2)on1)N(C1CCCCC1)C1CCOCC1` [Compd 7c], for which the “loss of potency at S1P3-R relative to 5f” value in test [2] was determined as 33 fold.
Consider `CC(C)Cc1cc(C(=O)N(C2CCCCC2)C2CCCCC2)no1` [Compd 5a], for which the “less selective against the S1P1-R than the hit” value in test [1] (S1P3-R over S1P1-R, relative to 1a) is “four-fold”. Further, the “loss in potency for the S1P3-R relative to hit 1a” value in test [2] is “three-fold”.
`CCOc1ccc(-c2cc(C(=O)N(C3CCCCC3)C3CCCCC3)no2)cc1OCC` [Compd 5i]: the “loss in potency for the S1P3-R relative to hit 1a” value in test [2] worked out at 18 fold.
As to `O=C(c1cc(C2CC2)on1)N(CC1CCCCC1)C1CCCCC1` [Compd 7d], the “loss of potency at S1P3-R relative to 5f” value in test [2] was 32 fold.
Consider `O=C(c1cc(C2CCCCC2)on1)N(C1CCCCC1)C1CCCCC1` [Compd 5d], for which, in test [1], the “activity at S1P1-R (in words)” value is “inactive”.
Consider `CCCc1cc(C(=O)N(C2CCCCC2)C2CCCC2)no1` [Compd 1b], for which, in test [1] (less potent than 1a), the “loss in potency for the S1P1-R relative to hit 1a” value was “three-fold”. The “loss in potency for the S1P3-R relative to hit 1a” value in test [2] was determined as 18 fold.
As to `O=C(c1cc(C2CC2)on1)N(Cc1ccccc1)c1ccccc1` [Compd 7k], the “activity at S1P3-R (in words)” value in test [2] is reported as “drastic loss in potency”.
With `CC1CCCCC1N(C(=O)c1cc(C2CC2)on1)C1CCCCCC1` (centres unmarked) [Compd 7g], in test [2] (relative to 7e), the “less potent than 7e at S1P3-R” value is reported as “almost two-fold”.
`CC(C)c1cc(C(=O)N(C2CCCCC2)C2CCCCC2)no1` [Compd 5b]: the “loss in potency for the S1P3-R relative to hit 1a” value in test [2] was “two-fold”.
For the compound `CCCc1cc(C(=O)NC2CCCCC2)no1` [Compd 1c], the “activity at S1P1-R (in words)” value in test [1] is given as “complete loss of potency”. Besides, the “activity at S1P3-R (in words)” value in test [2] is on record as “complete loss of potency”.
For `O=C(NC1CCCCC1)c1cc(C2CC2)on1` [Compd 7a], the “activity at S1P3-R (in words)” value in test [2] is given as “complete loss of activity”.
In the case of `CC1CCCCC1N(C(=O)c1cc(C2CC2)on1)C1CCCCC1` (centres unmarked) [Compd 7e], in test [2], the “selectivity against S1P1,2,4,5-R subtypes (in words)” value (shortened to “selectivity … (in words)”) is given as “exquisitely selective” and the “loss of potency at S1P3-R relative to 5f” value was “three-fold”.
`O=C(c1cc(C2CC2)on1)N(C1CCCCC1)C1CCCCC1` [Compd 5f, N,N-dicyclohexyl-5-cyclopropylisoxazole-3-carboxamide]: the “competition with [33P]S1P for the S1P3-R binding pocket” value in test [3] is “does not compete”. Further, the “inhibition of sodium channel site two” value in test [4] is on record as at least 50%. In addition, in test [5], the “stimulation/inhibition of panel targets” value is under 50%. In addition, the “selectivity … (in words)” value in test [2] is on record as “exquisitely selective”. For the same compound, the “more potent than the hit at S1P3-R” value in test [2] (relative to 1a) was “four-fold”.
Regarding `O=C(c1cc(C2CC2)on1)N(C1CCCCCC1)C1CCCC1` [Compd 7j], in test [2], the “loss of potency at S1P3-R relative to 5f” value is given as 26 fold.
Regarding `CC1CCCCC1N(C(=O)c1cc(C2CC2)on1)C1CCCCC1C` (centres unmarked) [Compd 7f], in test [2], the “selectivity … (in words)” value is recorded as “exquisitely selective” and the “loss of potency at S1P3-R relative to 5f” value is given as “two-fold”.
With `O=C(c1coc(C2CC2)n1)N(C1CCCCC1)C1CCCCC1` [Compd 9a], the “activity at S1P3-R (in words)” value in test [2] was “inactive”.
The same measure, in the same setting: for `O=C(c1cc(C2CC2)on1)N(Cc1ccccc1)c1ccccn1` [Compd 7l] the value was “drastic loss in potency”.
In the case of `CCCc1cc(C(=O)N(c2ccccc2)C2CCCCC2)no1` [Compd 1d], the “activity at S1P1-R (in words)” value in test [1] is recorded as “complete loss of potency”. Besides, the “activity at S1P3-R (in words)” value in test [2] was “complete loss of potency”.
Turning to `CCCCCCCCCCCCC/C=C/[C@@H](O)[C@@H](N)COP(=O)(O)O` [S1P, Sphingosine-1-phosphate, reference compound], the “competition with [33P]S1P for the S1P3-R binding pocket” value in test [3] is listed as “competes”.
In the case of `O=C(c1cc(C2CC2)on1)N(C1CCCCC1)C1CCCC1` [Compd 7b], in test [2], the “loss of potency at S1P3-R relative to 5f” value was 16 fold.
On to `CCCc1cc(C(=O)N(C2CCCCC2)C2CCCCC2)no1` [Compd 1a, N,N-dicyclohexyl-5-propylisoxazole-3-carboxamide], for which the “agonist activity at S1P2-R” value in test [6] is “no agonist activity”. Also, the “agonist activity at S1P4-R” value in test [7] is recorded as “no agonist activity”.
For the compound `O=C(c1cc(C2CCCC2)on1)N(C1CCCCC1)C1CCCCC1` [Compd 5e], the “activity at S1P1-R (in words)” value in test [1] was “inactive”.
